Molecules are shown by their SMILES.

The subject of experiment [1] is YAP-TEAD transcriptional activity. In words: HOP-flash TEAD binding site luciferase reporter. The experiment is classed as cell-based, human. Particulars: LN229 or GBM39 cells, 18 h. Here is the method: Levels of total YAP were determined via ELISA. […] Immunoprecipitates were immunoblotted for the indicated proteins. […] Cells were treated with the indicated concentrations of inhibitor for 18 h and mRNA extracted for real time RT-PCR analyses. Measurements were performed in quadruplicate and means and+S.D. are shown. […] Cells were treated with (+) or without (−) NSC682769 (100 nM, 18 h) and harvested and separated into cytoplasmic and nuclear cellular fractions. Cytoplasmic versus nuclear material was subsequently immunoblotted for the indicated proteins. […] Values in top right corner of panels correspond to the percentage of nuclear localized YAP. Cells were grown on coverslips and treated with NSC682769. Cells were permeabilized and stained using primary antibody to YAP1 and FITC-conjugated secondary. Nuclei were stained with DAPI. Scale bar, 20 μm.
Surface plasmon resonance (SPR), ELISA, YAP-TEAD reporter activity, cellular fractionation, and immunofluorescence analyses. SPR experiments were carried out on a Nicoya OpenSPR™ instrument using immobilized YAP on a carboxyl-coated sensor. […] YAP-TEAD reporter activity was determined as previously described (Kim N G, Gumbiner B M (2015) J Cell Biol 210: 503-515). […] Luciferase activity was measured via a luciferase assay system (Promega). […] Cell lysis was monitored by trypan blue staining. […]
(In general: A reporter such as luciferase makes a cellular process visible.)

For experiment [2], the system named is GFAP-EGFRvIII×GFAP-Cre+/Rictor glioma GEMM. Put plainly: Survival of GFAP-EGFRvIII; GFAP-Cre/Rictor transgenic glioma mice. It counts as in vivo. As for the experimental part: FIGS. 9A-B show GEMM survival and brain/blood plasma concentrations following treatment with NSC682769. […] C57/BL6 mice were administered NSC682769 IV and mean brain and plasma concentrations were determined via HPLC analyses. (n=5).
Animal studies. Xenografts of LN229 cells were performed in 4-6-week-old female C.B.-17-scid (Taconic) mice as previously described (Holmes B, et al. (2016) J Biol Chem 291: 14146-14159). Tumors were harvested at autopsy for immunoblot analysis. Sections of paraffin-embedded tumors on slides were processed for immunohistochemistry as previously described (Benavides-Serrato A, et al. (2017) PLoS One 12: e0176599). For GEMM studies, double transgenic GFAP-EGFRvIII; GFAP-Cre/Rictor^loxP/loxP mice as previously described were used (Bashir T, et al. (2012) PLoS One 7: e47741). Determinations of blood plasma and brain concentrations of NSC682769 following IV administration were performed in C57/BL6 mice.
NSC682769 increases survival of a glioma GEMM and penetrates the blood-brain barrier. NSC682769 was evaluated in double transgenic GFAP-EGFRvIII; GFAP-Cre/Rictor^loxP/loxP mice which overexpress both the mutant constitutively active EGFRvIII allele and the mTORC2 scaffolding component Rictor. […] To assess therapeutic activity, the effect of twice-weekly 5 or 20 mg/kg NSC682769 treatments was measured on survival.

As for `COc1ccc(-c2cc(-c3ccccc3)nc3c2CC(=O)Nc2ccccc2-3)cc1OC` [NSC682769], the “YAP-TEAD transcriptional activity (luciferase)” value in experiment [1] is reported as “markedly reduced”. The “Mice surviving to 20 weeks” value in experiment [2] (5 mg/kg twice weekly) was found to be 60%. Besides, the “Mice surviving at 20 weeks” value in experiment [2] (20 mg/kg twice weekly) is reported as “more than 75%”.

Source of the values: patent publication US20240108634A1, “COMPOSITIONS AND METHODS FOR INHIBITING YAP” (The United States Government as represented by the …, priority 2021, published 2024).
